Experimental data as given in patent US20190167611A1, “METHODS OF TREATING OR PREVENTING AMYLOID RELATED IMAGING ABNORMALITIES ASSOCIATED WITH ALZHEIMER'S DISEASE TREATMENT” (BIOGEN CHESAPEAKE LLC, priority 2016, published 2019).

Tests used:
[1] = human, in vivo
Method: The two groups are referred to as the 0.4 mg/day group and the 3.0 mg/day group, respectively.

[2] = test system: Alzheimer's disease patients who present with clinically significant ARIA; test: Clinical trial of glyburide plus standard of care versus placebo in Alzheimer's disease patients with clinically significant ARIA; assay type: in vivo, human; conditions: glyburide 0.5-3.0 mg/day, several routes
Method: In one arm, glyburide is administered as a bolus followed by continuous infusion. In a second arm, glyburide is administered via a transdermal patch or gel. In a third arm, glyburide is administered via injection. In a fourth arm, glyburide is administered orally. […] Total treatment duration will be a minimum of 72 hours and will continue as needed until acute brain edema has stabilized. […] Plasma levels of glyburide are determined daily or weekly. Each patient is monitored via blood sampling and MRI. Magnetic resonance imaging scans monitor patients for amyloid-related imaging abnormalities and progression of edema and/or associated hemorrhage. FLAIR sequences are evaluated for the presence of ARIA. A 4-point scale is used to assess presence of ARIA. The percentages of patients with ARIA are compared between treatment groups and placebo group.

In the case of `COc1ccc(Cl)cc1C(=O)NCCc1ccc(S(=O)(=O)NC(=O)NC2CCC(O)CC2)cc1` (stereo not shown) [M1], the “Metabolite exposure in relation to the administered dose of RP-1127” value [1] is reported as “approximately proportional”.
In the case of `COc1ccc(Cl)cc1C(=O)NCCc1ccc(S(=O)(=O)NC(=O)N[C@@H]2CCC[C@H](O)C2)cc1` [M2], the “Metabolite exposure in relation to the administered dose of RP-1127” value [1] is reported as “approximately proportional”.
In the case of `COc1ccc(Cl)cc1C(=O)NCCc1ccc(S(=O)(=O)NC(=O)NC2CCCCC2)cc1` [glyburide], the “Dose dependence of pharmacokinetics” value [1] is reported as “dose-independent pharmacokinetics”, the “ARIA compared with the control group” value [2] is reported as “significantly reduced or inhibited” and the “Brain edema compared with the control group” value [2] is reported as “reduced brain edema”. The “Functional recovery compared with the control group” value [2] was “improved functional recovery” and the “Hemorrhage volume compared with the control group” value [2] was “reduced hemorrhage volume”.
